Patent US20260365670A1, “EGFR INHIBITORS AND USES THEREOF” (DIZAL (JIANGSU) PHARMACEUTICAL CO., LTD., priority 2022, published 2026)
Read-outs that look alike come from different tables or passages of the source.

Key:
EGFR wild type = target: T1, EGFR wild type (Homo sapiens, UniProt P00533); test: Inhibition of EGFR wild type biochemical enzymatic activity (HTRF); settings: 1 mM ATP
T1 construct: purchased Carna Bio
Experimental: (§1) Biological Example 1: Inhibition of EGFR WT and Mutant Biochemical Enzymatic Activity
(§2) The inhibition potency of compounds against these enzymes was assessed using Homogenous Time Resolved Fluorescence approach (HTRF, CisBio. Cat No. 62TKOPEJ).
(§3) Inhibitory effects of the compounds were determined by measuring the enzymatic activity of EGFR enzyme phosphorylates 1 μM TK Substrate-biotin in the presence of 1 mM adenosine-5′-triphosphate (ATP) and varying concentrations of the test compound. The enzyme reaction buffer contains 5 mM MgCl2, 1 mM MnC12, 0.01% CHAPS, 1 mM dithiothreitol (DTT), 0.5% dimethylsulfoxide (DMSO), and 1× supplemented enzymatic buffer. The WT and mutant EGFR enzymes (SignalChem) were added to plates containing inhibitors, followed by activation of the kinase reaction by addition of ATP and peptide substrates. After incubation for 1 h at room temperature, the reaction was stopped by the addition of the detection reagent mix containing EDTA. The fluorescence was measured at 615 nm and 665 nm, respectively with excitation wavelength at 320 nm. The calculated signal ratio of 665 nm/615 nm is proportional to the kinase activity. The concentration of compound producing 50% inhibition of the respective kinase (IC50) was calculated using four-parameter logistic fit with XL-FIT.

EGFR L858R = target: T2, EGFR L858R (Homo sapiens, UniProt P00533, L858R); test: Inhibition of EGFR L858R biochemical enzymatic activity (HTRF); settings: 1 mM ATP
T2 construct: purchased Carna Bio
Experimental: as §1, §2, §3

EGFR L858R/T790M = target: T3, EGFR L858R/T790M (Homo sapiens, UniProt P00533, L858R/T790M); test: Inhibition of EGFR L858R/T790M biochemical enzymatic activity (HTRF); settings: 1 mM ATP
T3 construct: purchased Carna Bio
Experimental: as §1, §2, §3

EGFR Exon19Del = target: T4, EGFR Exon19Del (Homo sapiens, UniProt P00533, DEL746-750); test: Inhibition of EGFR Exon19Del biochemical enzymatic activity (HTRF); settings: read-out: IC50 @Del19
T4 construct: purchased Carna Bio
Experimental: as §1, §2, §3

EGFR Exon19Del/T790M = target: T5, EGFR Exon19Del/T790M (Homo sapiens, UniProt P00533, DEL746-750/T790M); test: Inhibition of EGFR Exon19Del/T790M biochemical enzymatic activity (HTRF); settings: 1 mM ATP
T5 construct: purchased Carna Bio
Experimental: as §1, §2, §3

EGFR[T790M/C797S/L858R] = target: T6, EGFR[T790M/C797S/L858R] (Homo sapiens, UniProt P00533, C797S/L858R/T790M); test: Inhibition of EGFR[T790M/C797S/L858R] biochemical enzymatic activity (HTRF); settings: 1 mM ATP
T6 construct: purchased Carna Bio
Experimental: as §1, §2, §3

[1] = target: T7, EGFR[T790M/C797S/d746-750] (Homo sapiens, UniProt P00533, C797S/DEL746-750/T790M); test: Inhibition of EGFR[T790M/C797S/d746-750] biochemical enzymatic activity (HTRF)
T7 construct: purchased Carna Bio
Experimental: as §1, §2, §3

EGFR (d746-750 C797S) = target: T8, EGFR (d746-750 C797S) (Homo sapiens, UniProt P00533, C797S/DEL746-750); test: Inhibition of EGFR (d746-750 C797S) biochemical enzymatic activity (HTRF); settings: 1 mM ATP
T8 construct: purchased signalchem
Experimental: as §1, §2, §3

EGFR (C797S L858R) = target: T9, EGFR (C797S L858R) (Homo sapiens, UniProt P00533, C797S/L858R); test: Inhibition of EGFR (C797S L858R) biochemical enzymatic activity (HTRF); settings: 1 mM ATP
T9 construct: purchased signalchem
Experimental: as §1, §2, §3

[2] = tested on: Ba/F3 cells expressing EGFR mutations; test: Cell proliferation assay, Ba/F3 cells expressing EGFR mutations (CellTiter-Glo, 72 hours); type: cell-based
Experimental: (§4) Biological Example 2: Cell Proliferation Assays
(§5) Ba/F3 cells expressing EGFR mutations were seeded in 384-well plates at 5000 cells/well in RPMI1640 medium containing […]. PC-9 at 500 cells/well was seeded into 384-well plates in RPMI1640 medium with 10% FBS. After overnight incubation, the assay plates were dosed with compounds at a series of concentrations. Alongside dosing the assay plates, the day 0 plate was processed using CellTiter-Glo® Luminescent Cell Viability Assay (Promega) to measure the number of viable cells (G0). The assay plates were further incubated for 72 hours and the number of viable cells (G3) was measured. The percentage of proliferation was calculated as: […]=100×(G3 value of sample well−G0 value)/(G3 value of DMSO control−G0 value). The concentration of compound producing 50% proliferation inhibition (GI50) was further calculated in best-fit curves using XLFit software. N/A=not available.

PC-9 = test: Cell proliferation assay, PC-9 cells (CellTiter-Glo, 72 hours); type: cell-based; settings: PC9 cells
Experimental: as §4, §5

[3] = EGFR wild type, 1 h at room temperature, read-out: IC50 @WT
[4] = 1 h at room temperature, read-out: IC50 @L858R
[5] = EGFR L858R/T790M, 1 h at room temperature, read-out: IC50 @L858R-T790M
[6] = EGFR Exon19Del, 1 mM ATP, 1 h at room temperature
[7] = EGFR Exon19Del/T790M, 1 h at room temperature, read-out: IC50 @Del19-T790M
[8] = EGFR[T790M/C797S/L858R], 1 h at room temperature, read-out: IC50 @T790M- C797S - L858R
[9] = EGFR[T790M/C797S/d746-750], 1 mM ATP, 1 h at room temperature, read-out: IC50 @T790M - C797S - Del19
[10] = EGFR (d746-750 C797S), 1 h at room temperature, read-out: IC50 @Del19-C797S
[11] = EGFR (C797S L858R), 1 h at room temperature, read-out: IC50 @L858-C797S
[12] = BaF3 cells, EGFR DEL19 - C797S, read-out: GI50 DEL19 - C797S/BaF3
[13] = BaF3 cells, EGFR DEL19 - T790-C797S, read-out: GI50 DEL19 - T790-C797S/BaF3
[14] = BaF3 cells, EGFR L858R - C797S, read-out: GI50 L858R - C797S/BaF3
[15] = BaF3 cells, EGFR L858R - T790-C797S, read-out: GI50 L858R - T790-C797S/BaF3
[16] = BaF3 cells, EGFR L858R - T790M, read-out: GI50 L858R - T790M/BaF3
[17] = BaF3 cells, EGFR L858R, read-out: GI50 L858R/BaF3
[18] = EGFR DEL19 - T790M, read-out: GI50 DEL19 - T790M

T3 sequence (P00533 25-1210 T790M/L858R): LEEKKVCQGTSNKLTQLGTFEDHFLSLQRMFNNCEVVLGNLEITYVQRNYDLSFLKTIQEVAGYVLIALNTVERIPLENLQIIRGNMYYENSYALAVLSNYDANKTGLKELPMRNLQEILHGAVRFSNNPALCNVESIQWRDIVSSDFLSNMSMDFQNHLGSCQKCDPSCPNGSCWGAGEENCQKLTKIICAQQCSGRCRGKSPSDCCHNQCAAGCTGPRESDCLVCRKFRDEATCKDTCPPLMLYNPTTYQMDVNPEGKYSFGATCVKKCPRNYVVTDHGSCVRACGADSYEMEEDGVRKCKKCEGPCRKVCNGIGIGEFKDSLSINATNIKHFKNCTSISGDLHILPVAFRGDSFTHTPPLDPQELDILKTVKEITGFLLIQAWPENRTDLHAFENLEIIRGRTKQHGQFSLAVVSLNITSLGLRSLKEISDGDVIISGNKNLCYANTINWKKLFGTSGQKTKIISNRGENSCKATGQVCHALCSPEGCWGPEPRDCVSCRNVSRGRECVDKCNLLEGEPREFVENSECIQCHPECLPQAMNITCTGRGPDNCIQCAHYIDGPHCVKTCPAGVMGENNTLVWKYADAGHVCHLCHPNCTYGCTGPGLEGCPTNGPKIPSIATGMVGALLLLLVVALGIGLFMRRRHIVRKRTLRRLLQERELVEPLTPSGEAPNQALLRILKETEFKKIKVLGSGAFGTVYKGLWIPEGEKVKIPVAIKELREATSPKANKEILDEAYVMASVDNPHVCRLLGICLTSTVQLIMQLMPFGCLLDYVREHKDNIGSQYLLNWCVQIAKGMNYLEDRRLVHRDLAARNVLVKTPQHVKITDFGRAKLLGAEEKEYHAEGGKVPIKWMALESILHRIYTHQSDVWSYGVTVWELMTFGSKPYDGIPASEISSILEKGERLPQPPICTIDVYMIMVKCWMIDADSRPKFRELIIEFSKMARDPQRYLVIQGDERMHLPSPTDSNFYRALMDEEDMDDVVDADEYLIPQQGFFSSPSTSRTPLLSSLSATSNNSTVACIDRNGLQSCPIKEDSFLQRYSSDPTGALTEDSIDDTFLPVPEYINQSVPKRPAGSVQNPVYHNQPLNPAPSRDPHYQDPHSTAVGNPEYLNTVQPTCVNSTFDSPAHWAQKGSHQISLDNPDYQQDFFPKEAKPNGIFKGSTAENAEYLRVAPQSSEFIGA
T8 sequence (P00533 with tags, fused parts or gaps DEL746-750/C797S limits assumed): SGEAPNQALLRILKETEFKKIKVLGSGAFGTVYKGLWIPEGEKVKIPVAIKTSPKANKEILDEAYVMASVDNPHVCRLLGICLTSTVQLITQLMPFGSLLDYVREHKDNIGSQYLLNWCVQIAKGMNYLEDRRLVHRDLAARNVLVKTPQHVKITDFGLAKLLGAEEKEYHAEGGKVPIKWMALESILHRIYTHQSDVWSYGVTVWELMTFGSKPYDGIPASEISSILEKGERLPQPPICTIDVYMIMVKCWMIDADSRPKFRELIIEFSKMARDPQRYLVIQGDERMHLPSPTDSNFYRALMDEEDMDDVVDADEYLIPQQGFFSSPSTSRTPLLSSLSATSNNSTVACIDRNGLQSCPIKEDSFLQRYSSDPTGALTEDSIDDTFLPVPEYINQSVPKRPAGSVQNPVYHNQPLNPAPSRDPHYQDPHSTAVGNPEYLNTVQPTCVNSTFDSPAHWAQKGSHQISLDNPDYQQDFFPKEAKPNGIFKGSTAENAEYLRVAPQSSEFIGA
T2 sequence (P00533 25-1210 L858R): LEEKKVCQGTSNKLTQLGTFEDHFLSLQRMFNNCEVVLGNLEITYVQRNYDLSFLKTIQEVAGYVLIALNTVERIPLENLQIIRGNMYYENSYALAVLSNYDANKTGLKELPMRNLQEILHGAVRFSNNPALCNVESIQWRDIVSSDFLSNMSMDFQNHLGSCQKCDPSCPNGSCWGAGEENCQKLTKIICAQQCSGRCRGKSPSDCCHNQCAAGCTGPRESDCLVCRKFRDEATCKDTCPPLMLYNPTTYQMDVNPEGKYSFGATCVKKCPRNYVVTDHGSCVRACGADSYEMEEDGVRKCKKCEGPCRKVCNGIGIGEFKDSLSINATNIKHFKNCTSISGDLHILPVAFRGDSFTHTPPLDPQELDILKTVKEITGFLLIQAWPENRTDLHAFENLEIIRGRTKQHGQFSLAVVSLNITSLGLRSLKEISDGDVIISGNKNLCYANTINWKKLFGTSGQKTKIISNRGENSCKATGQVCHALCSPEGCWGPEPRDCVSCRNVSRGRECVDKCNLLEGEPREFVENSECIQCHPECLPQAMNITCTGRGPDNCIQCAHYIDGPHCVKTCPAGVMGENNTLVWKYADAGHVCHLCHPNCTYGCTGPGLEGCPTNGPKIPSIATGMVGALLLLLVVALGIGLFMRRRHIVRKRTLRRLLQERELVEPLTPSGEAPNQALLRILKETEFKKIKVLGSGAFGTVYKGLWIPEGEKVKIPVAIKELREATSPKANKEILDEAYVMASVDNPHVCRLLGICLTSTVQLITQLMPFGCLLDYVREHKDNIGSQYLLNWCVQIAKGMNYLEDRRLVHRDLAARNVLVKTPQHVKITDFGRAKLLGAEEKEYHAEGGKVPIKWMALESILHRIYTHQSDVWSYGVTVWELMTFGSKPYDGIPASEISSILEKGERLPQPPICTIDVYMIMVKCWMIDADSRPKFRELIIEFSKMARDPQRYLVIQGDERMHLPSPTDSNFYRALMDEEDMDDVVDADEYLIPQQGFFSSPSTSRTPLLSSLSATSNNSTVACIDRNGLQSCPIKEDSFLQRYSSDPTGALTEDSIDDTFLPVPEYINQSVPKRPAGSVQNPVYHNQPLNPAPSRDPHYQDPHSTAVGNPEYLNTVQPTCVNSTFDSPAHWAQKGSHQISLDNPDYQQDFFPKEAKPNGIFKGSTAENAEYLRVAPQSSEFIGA
T7 sequence (P00533 with tags, fused parts or gaps DEL746-750/T790M/C797S limits assumed): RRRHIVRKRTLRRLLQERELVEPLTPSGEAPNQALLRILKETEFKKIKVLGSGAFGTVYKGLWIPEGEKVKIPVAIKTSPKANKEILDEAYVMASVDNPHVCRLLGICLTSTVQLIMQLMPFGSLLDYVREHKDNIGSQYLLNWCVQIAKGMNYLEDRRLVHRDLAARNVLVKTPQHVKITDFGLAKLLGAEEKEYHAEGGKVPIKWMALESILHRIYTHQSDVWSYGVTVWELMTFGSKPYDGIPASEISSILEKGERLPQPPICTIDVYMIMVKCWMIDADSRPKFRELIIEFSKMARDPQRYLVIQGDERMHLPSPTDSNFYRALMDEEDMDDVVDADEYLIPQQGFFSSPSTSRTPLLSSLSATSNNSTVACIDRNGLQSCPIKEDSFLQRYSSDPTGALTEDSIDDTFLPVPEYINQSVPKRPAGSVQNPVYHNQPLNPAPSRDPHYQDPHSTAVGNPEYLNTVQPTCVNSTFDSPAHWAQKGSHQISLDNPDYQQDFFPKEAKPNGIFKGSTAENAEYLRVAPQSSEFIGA
T1 sequence (P00533 25-1210): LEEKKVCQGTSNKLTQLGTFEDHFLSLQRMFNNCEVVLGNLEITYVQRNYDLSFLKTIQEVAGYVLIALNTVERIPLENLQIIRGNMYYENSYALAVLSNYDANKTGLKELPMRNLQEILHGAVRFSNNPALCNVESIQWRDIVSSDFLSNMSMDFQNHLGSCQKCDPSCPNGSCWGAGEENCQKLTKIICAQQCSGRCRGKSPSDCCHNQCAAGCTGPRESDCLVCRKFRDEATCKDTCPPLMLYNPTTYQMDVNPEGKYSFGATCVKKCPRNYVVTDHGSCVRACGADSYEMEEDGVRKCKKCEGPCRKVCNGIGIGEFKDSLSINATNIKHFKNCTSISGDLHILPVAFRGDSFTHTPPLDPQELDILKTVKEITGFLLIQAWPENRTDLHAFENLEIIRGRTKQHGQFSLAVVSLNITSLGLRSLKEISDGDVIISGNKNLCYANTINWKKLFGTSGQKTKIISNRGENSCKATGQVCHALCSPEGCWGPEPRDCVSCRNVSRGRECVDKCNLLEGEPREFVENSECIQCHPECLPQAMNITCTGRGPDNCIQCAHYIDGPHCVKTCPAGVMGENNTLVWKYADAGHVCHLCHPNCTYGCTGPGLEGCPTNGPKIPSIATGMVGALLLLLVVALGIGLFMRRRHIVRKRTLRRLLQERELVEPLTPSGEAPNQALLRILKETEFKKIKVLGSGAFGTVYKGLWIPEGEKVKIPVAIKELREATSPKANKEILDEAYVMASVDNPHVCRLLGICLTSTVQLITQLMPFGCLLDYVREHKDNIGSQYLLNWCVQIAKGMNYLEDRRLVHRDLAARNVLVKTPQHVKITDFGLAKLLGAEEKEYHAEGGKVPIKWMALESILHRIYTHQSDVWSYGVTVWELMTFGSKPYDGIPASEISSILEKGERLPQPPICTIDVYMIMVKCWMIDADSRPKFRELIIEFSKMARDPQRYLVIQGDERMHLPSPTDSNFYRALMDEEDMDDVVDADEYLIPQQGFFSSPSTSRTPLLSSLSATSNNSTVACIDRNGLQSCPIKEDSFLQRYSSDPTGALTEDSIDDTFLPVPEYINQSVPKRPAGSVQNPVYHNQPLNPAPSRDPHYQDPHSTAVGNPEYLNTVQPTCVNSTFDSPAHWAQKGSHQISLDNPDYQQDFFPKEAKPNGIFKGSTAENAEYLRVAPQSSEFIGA

IC50 (EGFR wild type; [3]) [nM] | IC50 (EGFR L858R; [4]) [nM] | IC50 (EGFR L858R/T790M; [5]) [nM] | IC50 (EGFR Exon19Del; [6]) [nM] | IC50 (EGFR Exon19Del/T790M; [7]) [nM] | IC50 (EGFR[T790M/C797S/L858R]; [8]) [nM] | IC50 [1, 9] [nM] | IC50 (EGFR (d746-750 C797S); [10]) [nM] | IC50 (EGFR (C797S L858R); [11]) [nM] | GI50 [2, 12] [nM] | GI50 [2, 13] [nM] | GI50 [2, 14] [nM] | GI50 [2, 15] [nM] | GI50 [2, 16] [nM] | GI50 [2, 17] [nM] | GI50 [2, 18] [nM] | GI50 (PC-9; read-out: GI50 PC9) [nM] | Compound | also measured
> 5000 | > 5000 | > 5000 | > 5000 | 3370 | > 5000 | 1100 | > 5000 | > 5000 | 357 | 615 | 1080 | 124 | 383 | 2850 | 530 | 3020 | Cc1cc2cc(n1)-c1cnn(C)c1OCCN1CC3CCC(C3)(C1)n1c(nc3ccc(N4CCC5(CCN(C)CC5)C4)cc31)NC2=O (single isomer, unassigned) [Example B51A] | –
– | – | – | – | – | – | – | – | – | – | – | – | – | – | – | – | – | CN(C)CCC1CN(c2ccc3nc4n(c3c2)C23CCC(CN(CCOc5c(cnn5C)-c5cc(cn(C)c5=O)C(=O)N4)C2)C3)C1 (single isomer, unassigned) [Example A95B] | IC50 (EGFR wild type; EGFR WT, 1 h, room temperature, read-out: IC50 (nM) @WT): 55 nM; IC50 (EGFR L858R; 1 h, room temperature, read-out: IC50 (nM) @L858R): 7 nM; IC50 (EGFR L858R/T790M; EGFR L858R-T790M, 1 h, room temperature, read-out: IC50 (nM) @L858R-T790M): 3.7 nM; IC50 (EGFR Exon19Del; EGFR Del19, 1 mM ATP, 1 h, room temperature): 1.7 nM; IC50 (EGFR Exon19Del/T790M; EGFR Del19-T790M, 1 h, room temperature, read-out: IC50 (nM) @Del19-T790M): 3.1 nM; IC50 (EGFR[T790M/C797S/L858R]; EGFR T790M-C797S-L858R, 1 h, room temperature, read-out: IC50 (nM) @T790M- C797S - L858R): 3.3 nM; IC50 ([1]; EGFR T790M-C797S-Del19, 1 mM ATP, 1 h, room temperature, read-out: IC50 (nM) @T790M - C797S - Del19): 2.7 nM; IC50 (EGFR (d746-750 C797S); EGFR Del19-C797S, 1 h, room temperature, read-out: IC50 (nM) @Del19-C797S): 1.5 nM; IC50 (EGFR (C797S L858R); EGFR L858-C797S, 1 h, room temperature, read-out: IC50 (nM) @L858-C797S): 4.7 nM; GI50 ([2]; Mus musculus, BaF3, 72 h, BaF3 cells, EGFR DEL19-C797S, CellTiter-Glo, read-out: DEL19-C797S/BaF3 GI50): 95 nM; GI50 ([2]; Mus musculus, BaF3, 72 h, BaF3 cells, EGFR DEL19-T790-C797S, CellTiter-Glo, read-out: DEL19-T790-C797S/BaF3 GI50): 228 nM; GI50 ([2]; Mus musculus, BaF3, 72 h, BaF3 cells, EGFR L858R, CellTiter-Glo, read-out: L858R/BaF3 GI50): 357 nM; GI50 ([2]; Mus musculus, BaF3, 72 h, BaF3 cells, EGFR L858R-C797S, CellTiter-Glo, read-out: L858R-C797S/BaF3 GI50): 436 nM; GI50 ([2]; Mus musculus, BaF3, 72 h, BaF3 cells, EGFR L858R-T790-C797S, CellTiter-Glo, read-out: L858R-T790-C797S/BaF3 GI50): 574 nM; GI50 ([2]; Mus musculus, BaF3, 72 h, BaF3 cells, EGFR L858R-T790M, CellTiter-Glo, read-out: L858R-T790M/BaF3 GI50): 1080 nM; GI50 ([2]; Mus musculus, BaF3, 72 h, EGFR DEL19-T790M, CellTiter-Glo, read-out: DEL19-T790M GI50): 177 nM; GI50 (PC-9; Homo sapiens, PC-9, 72 h, CellTiter-Glo, read-out: PC9 GI50): 2460 nM
> 5000 | > 5000 | > 5000 | 4170 | 4260 | > 5000 | 1820 | 3460 | > 5000 | 371 | 500 | 721 | 97 | 380 | 2990 | 417 | 2260 | Cc1cc2cc(n1)-c1cnn(C)c1OCCN1CC3CCC(C3)(C1)n1c(nc3ccc(N(C)CCN(C)C)cc31)NC2=O (single isomer, unassigned) [Example B47A] | –
